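Protocol summary: plate cells (96-well), add compound at 5 concentrations, incubate 48 h, interpolate endpoints linearly. Abbreviation: GI50, concentration required for 50% inhibition of growth.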 Calls of active or inactive are those of the source. Rule as the data show it: active = GI50 up to about 1.1 µM and inactive = higher.
Assays:
Experiment in all cases: growth of human tumour cells (NCI), 48 h
SK-MEL-28 = test system: SK-MEL-28
M14 = test system: M14
RPMI-8226 = test system: RPMI-8226
NCI-H23 = test system: NCI-H23
CAKI-1 = test system: CAKI-1
RXF 393 = test system: RXF 393
UO-31 = test system: UO-31
SK-OV-3 = test system: SK-OV-3
A549 = test system: A549
K562 = test system: K562
LOX IMVI = test system: LOX IMVI
NCI-H460 = test system: NCI-H460
SF-295 = test system: SF-295
SNB-75 = test system: SNB-75
HCC 2998 = test system: HCC 2998
HOP-92 = test system: HOP-92

SMILES	GI50 (SK-MEL-28)	GI50 (M14)	GI50 (RPMI-8226)	GI50 (NCI-H23)	GI50 (CAKI-1)	GI50 (RXF 393)	GI50 (UO-31)	GI50 (SK-OV-3)	GI50 (A549)	GI50 (K562)	GI50 (LOX IMVI)	GI50 (NCI-H460)	GI50 (SF-295)	GI50 (SNB-75)	GI50 (HCC 2998)	GI50 (HOP-92)
Cc1ccc(-c2nc3ccccc3c(=O)n2NCC2(O)OCC(O)C(O)C2O)cc1 (stereo not given)	> 100 µM (inactive)	> 100 µM (inactive)	> 100 µM (inactive)	> 100 µM (inactive)	> 100 µM (inactive)	> 100 µM (inactive)	> 100 µM (inactive)	> 100 µM (inactive)	> 100 µM (inactive)	> 100 µM (inactive)	> 100 µM (inactive)	> 100 µM (inactive)	> 100 µM (inactive)	> 100 µM (inactive)	–	–
C[C@]12CC[C@H](O)CC1=CC[C@@H]1C2CC[C@]2(C)NC(=O)C(C#N)CC12 (stereo not given in full)	66.8 µM (inactive)	> 100 µM (inactive)	> 100 µM (inactive)	> 100 µM (inactive)	> 100 µM (inactive)	55.1 µM (inactive)	> 100 µM (inactive)	> 100 µM (inactive)	> 100 µM (inactive)	6.89 µM (inactive)	–	> 100 µM (inactive)	12.8 µM (inactive)	51.4 µM (inactive)	> 100 µM (inactive)	–
Cc1cccc(C)c1NC(=O)C(=O)C1C(=O)NC(=O)NC1=O	> 100 µM (inactive)	> 100 µM (inactive)	> 100 µM (inactive)	> 100 µM (inactive)	> 100 µM (inactive)	> 100 µM (inactive)	> 100 µM (inactive)	> 100 µM (inactive)	> 100 µM (inactive)	> 100 µM (inactive)	> 100 µM (inactive)	> 100 µM (inactive)	> 100 µM (inactive)	–	> 100 µM (inactive)	> 100 µM (inactive)
CC1CN1c1c(C(=O)/C=C/c2ccccc2)c(-c2ccccc2)nn(C)c1=O (stereo not given)	25.3 µM (inactive)	17.1 µM (inactive)	–	16.6 µM (inactive)	37.4 µM (inactive)	24.7 µM (inactive)	15.5 µM (inactive)	31.6 µM (inactive)	28.6 µM (inactive)	18.2 µM (inactive)	15.6 µM (inactive)	19.1 µM (inactive)	22.6 µM (inactive)	18.8 µM (inactive)	16.4 µM (inactive)	13.1 µM (inactive)
CC1CC(=O)Nc2ccc(Cl)cc2N1C(=O)CN1CCC(CCCCN(C)C)CC1 (stereo not given)	> 100 µM (inactive)	> 100 µM (inactive)	> 100 µM (inactive)	> 100 µM (inactive)	> 100 µM (inactive)	–	> 100 µM (inactive)	> 100 µM (inactive)	> 100 µM (inactive)	80 µM (inactive)	> 100 µM (inactive)	> 100 µM (inactive)	> 100 µM (inactive)	–	> 100 µM (inactive)	> 100 µM (inactive)
CCCNCc1nc2ccc(Br)cc2c(=O)n1CCC	15.3 µM (inactive)	14.1 µM (inactive)	3.67 µM (inactive)	13.4 µM (inactive)	–	15.4 µM (inactive)	16.2 µM (inactive)	18.7 µM (inactive)	16.6 µM (inactive)	8.04 µM (inactive)	4.93 µM (inactive)	–	16.9 µM (inactive)	17.1 µM (inactive)	–	–
Cc1cc2c(=O)cc(-c3ccc(C(=O)O)cc3)oc2c(C(N)=O)c1C	> 100 µM (inactive)	> 100 µM (inactive)	> 100 µM (inactive)	> 100 µM (inactive)	–	–	> 100 µM (inactive)	> 100 µM (inactive)	> 100 µM (inactive)	> 100 µM (inactive)	> 100 µM (inactive)	> 100 µM (inactive)	> 100 µM (inactive)	28.9 µM (inactive)	> 100 µM (inactive)	> 100 µM (inactive)
O=C(O)CCSC(=O)Nc1ccccc1	> 100 µM (inactive)	> 100 µM (inactive)	> 100 µM (inactive)	> 100 µM (inactive)	> 100 µM (inactive)	> 100 µM (inactive)	> 100 µM (inactive)	–	> 100 µM (inactive)	> 100 µM (inactive)	> 100 µM (inactive)	> 100 µM (inactive)	> 100 µM (inactive)	–	> 100 µM (inactive)	–
COc1cc(/C=N/c2nncs2)ccc1O	> 100 µM (inactive)	> 100 µM (inactive)	> 100 µM (inactive)	> 100 µM (inactive)	> 100 µM (inactive)	> 100 µM (inactive)	> 100 µM (inactive)	> 100 µM (inactive)	> 100 µM (inactive)	> 100 µM (inactive)	–	> 100 µM (inactive)	> 100 µM (inactive)	> 100 µM (inactive)	> 100 µM (inactive)	> 100 µM (inactive)
COC(=O)c1c(OC)cccc1C(=O)O	–	> 100 µM (inactive)	> 100 µM (inactive)	> 100 µM (inactive)	> 100 µM (inactive)	> 100 µM (inactive)	> 100 µM (inactive)	> 100 µM (inactive)	> 100 µM (inactive)	> 100 µM (inactive)	–	> 100 µM (inactive)	> 100 µM (inactive)	> 100 µM (inactive)	> 100 µM (inactive)	–
COc1ccc2c3ccc4c(c3n(C)c2c1)C(=O)c1ccccc1C4=O	> 100 µM (inactive)	> 100 µM (inactive)	> 100 µM (inactive)	> 100 µM (inactive)	–	> 100 µM (inactive)	> 100 µM (inactive)	21.6 µM (inactive)	74.5 µM (inactive)	> 100 µM (inactive)	–	–	78.2 µM (inactive)	> 100 µM (inactive)	> 100 µM (inactive)	80 µM (inactive)
COC(=O)C(=O)C1(CCC(C)=O)c2ccccc2-c2ccccc21	94 µM (inactive)	41 µM (inactive)	36.4 µM (inactive)	63.2 µM (inactive)	35.2 µM (inactive)	57.4 µM (inactive)	41 µM (inactive)	> 100 µM (inactive)	87.5 µM (inactive)	44.5 µM (inactive)	62.1 µM (inactive)	59.8 µM (inactive)	> 100 µM (inactive)	93.3 µM (inactive)	72.3 µM (inactive)	–
CN1OC2OC(=O)OC2[C@H]1[C@H]1O[C@H](c2ccccc2)OC1(C)c1cc(OC(=O)c2ccccc2)ccc1OC(=O)c1ccccc1 (stereo not given in full)	> 50 µM (inactive)	> 50 µM (inactive)	> 50 µM (inactive)	> 50 µM (inactive)	> 50 µM (inactive)	> 50 µM (inactive)	> 50 µM (inactive)	> 50 µM (inactive)	> 50 µM (inactive)	> 50 µM (inactive)	> 50 µM (inactive)	> 50 µM (inactive)	–	> 50 µM (inactive)	–	> 50 µM (inactive)
C[C@H]1NC(=O)C2CCCCN2C(=O)CN(C)C(=O)CNC(=O)C2CCCCN2C(=O)[C@@H](NC(=O)c2nc3ccccc3cc2O)[C@@H](C)NC(=O)C2CCCCN2C(=O)CN(C)C(=O)CNC(=O)[C@@H]2CCCCN2C(=O)C1NC(=O)c1nc2ccccc2cc1O (stereo not given in full)	0.212 µM (active)	0.241 µM (active)	0.274 µM (active)	0.242 µM (active)	0.136 µM (active)	0.0463 µM (active)	0.25 µM (active)	0.482 µM (active)	0.318 µM (active)	0.231 µM (active)	0.169 µM (active)	0.188 µM (active)	0.0258 µM (active)	0.0598 µM (active)	0.204 µM (active)	–
OCC(O)C(O)C(O)c1nn(-c2ccc(Cl)cc2)c2nc3cc(Cl)c(Cl)cc3nc12 (stereo not given)	61.1 µM (inactive)	22.7 µM (inactive)	> 100 µM (inactive)	19.2 µM (inactive)	> 100 µM (inactive)	21.8 µM (inactive)	71.6 µM (inactive)	23.8 µM (inactive)	32.4 µM (inactive)	50.8 µM (inactive)	39.3 µM (inactive)	68.7 µM (inactive)	67.6 µM (inactive)	3.66 µM (inactive)	60.1 µM (inactive)	–
CN(C)c1ccc(/C=C/C(=O)c2ccccc2)cc1Br	13.7 µM (inactive)	13.2 µM (inactive)	13.2 µM (inactive)	16.5 µM (inactive)	16.3 µM (inactive)	–	18.5 µM (inactive)	33 µM (inactive)	34.9 µM (inactive)	20.6 µM (inactive)	–	35.7 µM (inactive)	20 µM (inactive)	16.6 µM (inactive)	19.2 µM (inactive)	–
COC(=O)C1CC(OC(C)=O)C=C2C(=O)CCC21 (stereo not given)	17.1 µM (inactive)	16.7 µM (inactive)	21.4 µM (inactive)	–	27 µM (inactive)	14.8 µM (inactive)	27.2 µM (inactive)	27.1 µM (inactive)	37.2 µM (inactive)	15.9 µM (inactive)	–	17.1 µM (inactive)	–	15.2 µM (inactive)	34.2 µM (inactive)	–
COC(=O)C(CC=O)C(=O)C(=O)Nc1cccc(C(F)(F)F)c1 (stereo not given)	> 100 µM (inactive)	> 100 µM (inactive)	> 100 µM (inactive)	> 100 µM (inactive)	> 100 µM (inactive)	> 100 µM (inactive)	> 100 µM (inactive)	> 100 µM (inactive)	> 100 µM (inactive)	> 100 µM (inactive)	> 100 µM (inactive)	> 100 µM (inactive)	> 100 µM (inactive)	–	> 100 µM (inactive)	> 100 µM (inactive)
O=C(c1cc(O)ccc1O)c1ccccc1C(Cl)(Cl)Cl	–	88.7 µM (inactive)	47.5 µM (inactive)	58.2 µM (inactive)	93.1 µM (inactive)	> 100 µM (inactive)	41.9 µM (inactive)	> 100 µM (inactive)	> 100 µM (inactive)	61.8 µM (inactive)	–	> 100 µM (inactive)	55.7 µM (inactive)	> 100 µM (inactive)	> 100 µM (inactive)	38.8 µM (inactive)

Reference: ChEMBL document CHEMBL1201862, “PubChem BioAssay data set” (2004)
